Test results reported in patent publication US4734418A, “Quinazoline compounds and antihypertensives” (priority 1984, dated 1988).
Like-named read-outs stand apart in the source and are kept apart here.

Tested on: Spontaneously Hypertensive Rats
Experiment: Test 1: antihypertensive effects (systolic tail artery blood pressure) and heart rate in spontaneously hypertensive rats, oral
Type: in vivo, rat (male, SHR)
Settings: SHR; for change in vivo at 1 mg/kg / change in vivo at 10 mg/kg: Rattus norvegicus; for Change (%) in heart rate: maximum value
Experimental: The antihypertensive effects of the certain compounds of this invention were studied in the following manner.
Among male, spontaneously hypertensive rats (SHRs) of 20 weeks of age or older and 350-430 g heavy all of which had developed hypertension, those having systolic blood pressures of 180 mmHg or higher were used in groups, each of which was constituted of 3-4 of the rats. […] Besides, heart rates were also measured simultaneously. The compounds were each dissolved or suspended in a 0.5% methylcellulose solution and then administered orally.
*All administered orally at a dosage of 1 mg/Kg except for the compounds
**Each percent change in heart rate is indicated by the corresponding

[1] = oral 1 mg/Kg, 1 hour, read-out: Antihypertensive effects, change (%) in blood pressure, 1 hour later
[2] = oral 1 mg/Kg, 3 hours, read-out: Antihypertensive effects, change (%) in blood pressure, 3 hours later
[3] = oral 1 mg/Kg, 6 hours, read-out: Antihypertensive effects, change (%) in blood pressure, 6 hours later
[4] = oral 1 mg/Kg, 24 hours, read-out: Antihypertensive effects, change (%) in blood pressure, 24 hours later

SMILES	change in vivo at 1 mg/kg [1] [%]	change in vivo at 1 mg/kg [2] [%]	change in vivo at 1 mg/kg [3] [%]	change in vivo at 1 mg/kg [4] [%]	Change (%) in heart rate (oral 1 mg/Kg)	change in vivo at 10 mg/kg (oral 10 mg/Kg, 1 hour, read-out: Antihypertensive effects, change (%) in blood pressure, 1 hour later) [%]	change in vivo at 10 mg/kg (oral 10 mg/Kg, 3 hours, read-out: Antihypertensive effects, change (%) in blood pressure, 3 hours later) [%]	change in vivo at 10 mg/kg (oral 10 mg/Kg, 6 hours, read-out: Antihypertensive effects, change (%) in blood pressure, 6 hours later) [%]	change in vivo at 10 mg/kg (oral 10 mg/Kg, 24 hours, read-out: Antihypertensive effects, change (%) in blood pressure, 24 hours later) [%]	Change (%) in heart rate (oral 10 mg/Kg)
CCCN(CCC)C(=O)c1cnc(N2CCN(c3nc(N)c4cc(OC)c(OC)cc4n3)CC2)nc1NCC [Example 80]	-13.9	-26	-33.2	-10.1	+12.3%					
COc1cc2nc(N3CCN(c4ncc(C(=O)NCC(F)(F)F)c(C)n4)CC3)nc(N)c2cc1OC [Example 48]	-4.5	-9	-15	-4	+6.9%					
COc1cc2nc(N3CCN(c4ncc(C(=O)NN(C)C)c(C)n4)CC3)nc(N)c2cc1OC [Example 47]	-3.5	-9	-12.5	-2.5	+6.3%					
CCCn1ccc2nc(N3CCN(c4nc(N)c5cc(OC)c(OC)cc5n4)CC3)ncc2c1=O [Example 5]	0	-6.3	-13.2	-6.3	+2.6%					
CCn1ccc(=O)c2cnc(N3CCN(c4nc(N)c5cc(OC)c(OC)cc5n4)CC3)nc21 [Example 20]	1.5	-12.5	-12	-2	+5.7%					
CCN(CC)C(=O)c1cnc(N2CCN(c3nc(N)c4cc(OC)c(OC)cc4n3)CC2)nc1NC(C)C [Example 78]	-23.4	-33.7	-50.2	-18.5	+23.7%					
COc1cc2nc(N3CCN(c4ncc(C(C)=O)c(C)n4)CC3)nc(N)c2cc1OC [Example 36]	-14.6	-16.5	-15	-2.4	+9.5%					
CCNc1nc(N2CCN(c3nc(N)c4cc(OC)c(OC)cc4n3)CC2)ncc1C(=O)N(CC)CC [Example 67]	-21.4	-28.6	-38.4	-16.7	+7.4%					
CCNc1nc(N2CCN(c3nc(N)c4cc(OC)c(OC)cc4n3)CC2)ncc1C(=O)N(C)C [Example 79]	-27.9	-33.7	-45.2	-21.2	+22.3%					
CCNC(=O)c1cnc(N2CCN(c3nc(N)c4cc(OC)c(OC)cc4n3)CC2)nc1C(=O)NCC [Example 85]	-1.5	-7.3	-12.2	-3.9	+3.5%					
COCCN1Cc2nc(N3CCN(c4nc(N)c5cc(OC)c(OC)cc5n4)CC3)ncc2C1=O [Example 87]		-15.2	-21.6	-2.5	+17.7%					
COc1cc2nc(N3CCN(c4ncc(C#N)c(O)n4)CC3)nc(N)c2cc1OC [Example 51]	8.6	0	-4.1	-2.5	+3.0%					
COc1cc2nc(N3CCN(c4ncc5c(=O)n(C(C)C)ccc5n4)CC3)nc(N)c2cc1OC [Example 6]	-1.5	-13.8	-16.7	-9.9	+5.1%					
CCCCN1Cc2nc(N3CCN(c4nc(N)c5cc(OC)c(OC)cc5n4)CC3)ncc2C1=O [Example 27]	-5.4	-17.6	-21	-2.4	+8.3%					
COc1cc2nc(N3CCN(c4ncc5c(=O)n(CCO)ccc5n4)CC3)nc(N)c2cc1OC [Example 7]	1.5	-4.4	-9.3	-2.9	+2.8%					
COc1cc2nc(N3CCN(c4ncc(C(=O)N(C)C)c(C)n4)CC3)nc(N)c2cc1OC [Example 46]	0	-11.9	-17.5	-5.7	+7.4%					
CCN(CC)C(=O)c1cnc(N2CCN(c3nc(N)c4cc(OC)c(OC)cc4n3)CC2)nc1NC [Example 77]	-31	-32.9	-36.2	-13.8	+25.1%					
COc1cc2nc(N3CCN(c4ncc5c(=O)n(C)[nH]c5n4)CC3)nc(N)c2cc1OC.Cl [Example 83, 4-Amino-6,7-dimethoxy-2-(4-(2-methyl-3-oxo-2,3-dihydro-1H-pyrazolo[3,4-d]pyrimidine-6-yl)piperazino)quinazoline hydrochloride]	-3.9	-4.4	-5.3	-0.5	+5.6%					
CNC(=O)c1cnc(N2CCN(c3nc(N)c4cc(OC)c(OC)cc4n3)CC2)nc1NC [Example 68]	1.4	-19.6	-28.2	-11.5	+5.2%					
CCNC(=O)c1cnc(N2CCN(c3nc(N)c4cc(OC)c(OC)cc4n3)CC2)nc1N [Example 64]	-1.4	-9.6	-13.9	-1.9	+9.9%					
CCCCCCCN1Cc2nc(N3CCN(c4nc(N)c5cc(OC)c(OC)cc5n4)CC3)ncc2C1=O [Example 90]	2.3	-6.8	-15.5	-2.7	+8.7%					
CCN(CC)C(=O)c1cnc(N2CCN(c3nc(N)c4cc(OC)c(OC)cc4n3)CC2)nc1N [Example 65]						-4.9	-18.4	-21.4	-6.3	+8.9%
COc1cc2nc(N3CCN(c4nc(N(C)C)c5cc(OC)c(OC)cc5n4)CC3)nc(N)c2cc1OC [Example 73]	-0.5	0	-7	-8	+4.3%					
CNc1nc(N2CCN(c3nc(N)c4cc(OC)c(OC)cc4n3)CC2)ncc1C(=O)N(C)C [Example 69]	-12.9	-22.7	-24.7	-4.6	+7.4%					
CCNc1nc(N2CCN(c3nc(N)c4cc(OC)c(OC)cc4n3)CC2)ncc1C(=O)OC(C)C [Example 61]	-2.4	-22	-28.2	-12	+12.4%					
COc1cc2nc(N3CCN(C4=NCc5c(ccn(C)c5=O)N4)CC3)nc(N)c2cc1OC [Example 34]	0.5	-9.1	-13.9	-7.2	+2.3%					
